The values below come from patent publication US8445522B2, “Substituted 2-(4-pyridyl)benzoxazoles, and compositions thereof, for use in arthropod pest control” (Sumitomo Chemical Company, Limited, priority 2009, dated 2013).

Holding throughout (type): in vivo
Test [1] has as its system cotton aphids. The test is described as follows: Test Example 3: plant foot irrigation of cucumber seedling in plastic cup, cotton aphids inoculated after seven days. The settings on record: 144 h; 500 ppm, 5 ml plant foot irrigation, plastic cup; aphids inoculated after seven days at 25° C., counted six days after; read-out: Control value. The method, then: (§1) The formulations were diluted with water so that the concentration of the active ingredient became 500 ppm and thus test diluents were prepared. On the other hand, a plant foot of cucumber seedling (second true leaf development stage) planted in a plastic cup was irrigated with any one of diluents (5 ml). The seedling was kept in a green house of 25° C. for seven days. The cucumber leaves were inoculated with 30 cotton aphids (all stages) and kept in the green house for further six days. Thereafter, the number of survived cotton aphids parasitic on the cucumber leaves was counted, and the control value was calculated by the following equation. Control value(%)={1−(Cb×Tai)/(Cai×Tb)}×100 wherein each character represents the following meaning: Cb: number of insects in non-treated section before treatment Cai: number of insects in non-treated section during observation Tb: number of insects in treated section before treatment Tai: number of insects in treated section during observation

The subject of test [2] is cotton aphids. Kind of test: Test Example 2: plant foot irrigation of cucumber seedling in urethane mat, cotton aphids inoculated one day after treatment. Conditions: 168 h; 500 ppm, 5 ml plant foot irrigation, urethane mat; aphids inoculated one day after treatment, counted seven days after; read-out: Control value. The method, then:
as §1, with “urethane mat” for “plastic cup”, “One day after the treatment, the” for “The seedling was kept in a green house of 25° C. for seven days. The”, “stages). Further seven days after,” for “stages) and kept in the green house for further six days. Thereafter,”

Test [3] concerns rice brown planthopper. Kind of test: Test Example 6: plant foot irrigation of rice plant seedling, rice brown planthopper released after seven days. The settings on record: Nilaparvata lugens, 144 h; 500 ppm, 5 ml plant foot irrigation of rice seedling; first-instars released after seven days, counted six days after; read-out: Control value. The method, then: The formulations were diluted with water so that the concentration of the active ingredient became 500 ppm and thus test diluents were prepared. On the other hand, a plant foot of rice plant seedling (two weeks after seeding, second leaf development stage) planted in a plastic cup was irrigated with any one of diluents (5 ml). The seedling was kept in a green house of 25° C. for seven days. Thirty first-instars of rice brown planthopper were released to the seedling, which was kept in the green house at 25 C for six days. Thereafter, the number of survived rice brown planthopper parasitic on rice plant leaves was counted, and the control value was calculated by the following equation. Control value(%)={1−(Cb×Tai)/(Cai×Tb)}×100 wherein each character represents the following meaning: Cb: number of insects in non-treated section before treatment Cai: number of insects in non-treated section during observation Tb: number of insects in treated section before treatment Tai: number of insects in treated section during observation

The test system of a further test is halymorpha halys. The test is described as follows: Test Example 7: treated tissue paper with budding soybeans, halymorpha halys mortality. The settings on record: 168 h; 100 ppm, 5 ml on tissue paper with budding soybeans, ten insects, counted seven days after releasing; read-out: Mortality. As for the experimental part:
Formulations were prepared by the method described in Formulation Example 1 with respect to each of the active compound 13, the active compound 15, the active compound 18, the active compound 35, the active compound 37, the active compound 44, the active compound 65, the active compound 68 and the active compound 82. The formulations were diluted with water so that the concentration of the active ingredient became 100 ppm and thus test diluents were prepared.
On the other hand, a tissue paper placed in an aluminum cup was irrigated with any one of the above-mentioned diluents (5 ml). The tissue paper was placed in a polyethylene cup together with three budding soybeans. In the polyethylene cup, ten halymorpha halys were released, and the polyethylene cup was lidded by a polyethylene lid. Seven days after the releasing of the insects, the number of survived insects was counted, and the mortality was calculated by the following equation. Mortality(%)=(number of dead insects/number of insects to be tested)×100

The test system of another test is tobacco whitefly. Kind of test: Test Example 4: test diluent scattered on tomato seedling with hatched tobacco whitefly larvae. The settings on record: 168 h; 500 ppm, 10 ml/cup scattered on tomato seedling at larvae stage, counted after seven days at 25° C.; read-out: Control value. As for the experimental part:
The formulations were diluted with water so that the concentration of the active ingredient became 500 ppm and thus test diluents were prepared. On the other hand, by releasing tobacco whitefly imagos to a tomato seedling planted in a plastic cup to allow them to lay eggs for about 24 hours. The tomato seedling was kept in a green house for eight days. At the stage in which larvae hatched from the laid eggs, any of the test diluents was scattered at the rate of 10 ml/cup. The tomato seedling was kept in the greenhouse at 25° C. for seven days. The number of survived larvae on tomato leaves was counted, and the control value was calculated by the following equation. Control value(%)={1−(Cb×Tai)/(Cai×Tb)}×100 wherein each character represents the following meaning: Cb: number of insects in non-treated section before treatment Cai: number of insects in non-treated section during observation Tb: number of insects in treated section before treatment Tai: number of insects in treated section during observation

Test [4] concerns cotton aphids (Aphis gossypii Glover). Kind of test: Test Example 1: test diluent scattered on cucumber seedling inoculated with cotton aphids. Conditions: 120 h, 500 ppm active ingredient, 10 ml scattered on cucumber seedling, counted five days after scattering, read-out: Control value. As for the experimental part: The formulations were diluted with water so that the concentration of the active ingredient became 500 ppm and thus test diluents were prepared. On the other hand, a cucumber seedling (second true leaf development stage) planted in a plastic cup was inoculated with about 30 cotton aphids (Aphis gossypii Glover) and allowed to stand for one day. To the seedling, any one of the diluents (10 ml) was scattered. Five days after the scattering, the number of survived cotton aphids parasitic on the cucumber leaves was counted, and the control value was calculated by the following equation. Control value(%)={1−(Cb×Tai)/(Cai×Tb)}×100 wherein each character represents the following meaning: Cb: the number of insects in non-treated section before treatment Cai: the number of insects in non-treated section during observation Tb: the number of insects in treated section before treatment Tai: the number of insects in treated section during observation

For test [5], the system named is rice brown planthopper. Kind of test: Test Example 5: test diluent scattered on rice plant seedling, rice brown planthopper released. Conditions: Nilaparvata lugens, 144 h; 500 ppm, 10 ml scattered on rice plant seedling, 30 first-instars released, counted after six days at 25° C.; read-out: Control value. As for the experimental part:
The formulations were diluted with water so that the concentration of the active ingredient became 500 ppm and thus test diluents were prepared. On the other hand, to a rice plant seedling (two weeks after seeding, second leaf development stage) planted in a plastic cup, any one of the diluents (10 ml) was scattered. After the drug solution scattered on the rice plant was dried, 30 first-instars of rice brown planthopper were released on the rice plant, which was kept in the green house at 25° C. for six days. Thereafter, the number of rice brown planthopper parasitic on rice plant was counted and the control value was calculated by the following equation. Control value(%)={1−(Cb×Tai)/(Cai×Tb)}×100 wherein each character represents the following meaning: Cb: number of insects in non-treated section before treatment Cai: number of insects in non-treated section during observation Tb: number of insects in treated section before treatment Tai: number of insects in treated section during observation

Bounds are passed on as bounds.

As to `FC(F)(F)c1cnc2oc(-c3ccncc3C(F)(F)F)nc2c1` [Active Compound 144, 6-trifluoromethyl-2-[3-(trifluoromethyl)pyridin-4-yl]-oxazolo[5,4-b]pyridine], the pest or weed control at 500 ppm in the test on cotton aphids [1] was at least 90%.

With `COc1cnccc1-c1nc2cc(C(F)(F)F)cnc2o1` [Active Compound 145, 2-(3-methoxypyridin-4-yl)-6-(trifluoromethyl)oxazolo[5,4-b]pyridine], the pest or weed control at 500 ppm in the test on cotton aphids [1] was at least 90%.

Regarding `[O-][n+]1ccc(-c2nc3cc(C(F)(F)F)ccc3o2)cc1` [active compound 14, 4-[5-(trifluoromethyl)benzoxazole-2-yl]pyridine N-oxide], the pest or weed control at 500 ppm with cotton aphids [2], in the test on cotton aphids [1] and with rice brown planthopper [3] was at least 90% each time.

By mortality is commonly meant the percentage killed. For the compound `FC(F)(F)c1ccc2nc(-c3ccncc3)oc2c1` [active compound 15, 2-(pyridin-4-yl)-6-(trifluoromethyl)benzoxazole], the mortality at 100 ppm in the test with halymorpha halys is at least 80%.

On to `[O-][n+]1ccc(-c2nc3cc(C(F)(F)F)ccc3o2)c(Cl)c1` [active compound 19, 3-chloro-4-[5-(trifluoromethyl)benzoxazole-2-yl]pyridine N-oxide], for which the pest or weed control at 500 ppm in the test with cotton aphids [2] and in the test with cotton aphids [1] was at least 90% in each case.

`Cc1c[n+]([O-])ccc1-c1nc2cc(C(F)(F)F)ccc2o1` [active compound 24, 3-methyl-4-[5-(trifluoromethyl)benzoxazole-2-yl]pyridine N-oxide]: the pest or weed control at 500 ppm in the test with cotton aphids [1] and with rice brown planthopper [3] was at least 90% throughout.

Take `Fc1cnccc1-c1nc2cc(C(F)(F)F)ccc2o1` [active compound 25, 2-(3-fluoropyridin-4-yl)-5-(trifluoromethyl)benzoxazole]: the pest or weed control at 500 ppm with cotton aphids [1] and with rice brown planthopper [3] was at least 90% in each case.

Take `[O-][n+]1ccc(-c2nc3cc(C(F)(F)F)ccc3o2)c(I)c1` [active compound 30, 3-iode-4-[5-(trifluoromethyl)benzoxazole-2-yl]pyridine N-oxide]: the pest or weed control at 500 ppm in the test on cotton aphids [2], with cotton aphids [1] and in the test with rice brown planthopper [3] was at least 90% throughout.

For `FC(F)(F)CSc1cnccc1-c1nc2cc(C(F)(F)F)ccc2o1` [active compound 46, 2-[3-(2,2,2-trifluoroethylthio)pyridin-4-yl]-5-(trifluoromethyl)benzoxazole], the pest or weed control at 500 ppm (in the test on tobacco whitefly; with rice brown planthopper [3]; in test [4]; with rice brown planthopper [5]) was at least 90% in each case.

For the compound `FC(F)(F)c1ccc2oc(-c3ccncc3-n3cccn3)nc2c1` [active compound 58, 2-[3-(pyrazole-1-yl)pyridin-4-yl]-5-(trifluoromethyl)benzoxazole], the pest or weed control at 500 ppm in the test on cotton aphids [2], in the test with cotton aphids [1], in the test on rice brown planthopper [3] and in the test with rice brown planthopper [5] was at least 90% each time.

On to `FC(F)(F)c1ccc2oc(-c3ccncc3-n3cncn3)nc2c1` [active compound 63, 2-[3-(1,2,4-triazole-1-yl)pyridin-4-yl]-5-(trifluoromethyl)benzoxazole], for which the pest or weed control at 500 ppm in the test with cotton aphids [2], in the test on tobacco whitefly and in the test on cotton aphids [1] was at least 90% in each case.

On to `COc1cnccc1-c1nc2cc3c(cc2o1)C(F)(F)OC3(F)F` [active compound 88, 5,5,7,7-tetrafluoro-2-(3-methoxypyridin-4-yl)-5,7-dihydro-furo[3′,4′:4,5]benzo[1,2-d]oxazole], for which the pest or weed control at 500 ppm (with cotton aphids [2]; in the test with tobacco whitefly; in test [4]; with rice brown planthopper [5]) was at least 90% in each case.

With `CC(C)Oc1cnccc1-c1nc2cc3c(cc2o1)C(F)(F)OC3(F)F` [active compound 97, 5,5,7,7-tetrafluoro-2-(3-isopropoxypyridin-4-yl)-5,7-dihydro-furo[3′,4′:4,5]benzo[1,2-d]oxazole], the pest or weed control at 500 ppm (in the test on tobacco whitefly; in the test with rice brown planthopper [3]; in test [4]; with rice brown planthopper [5]) was at least 90% each time.

For `CCc1cnccc1-c1nc2cc3c(cc2o1)C(F)(F)OC3(F)F` [active compound 98, 2-(3-ethylpyridin-4-yl)-5,5,7,7-tetrafluoro-5,7-dihydro-furo[3′,4′:4,5]benzo[1,2-d]oxazole], the pest or weed control at 500 ppm (in the test on tobacco whitefly; with rice brown planthopper [3]; in test [4]; in the test on rice brown planthopper [5]) was at least 90% each time.

With `FC(F)(F)c1ccc2oc(-c3ccncc3C(F)(F)F)nc2c1` [active compound 125, 5-trifluoromethyl-2-[3-(trifluoromethyl)pyridin-4-yl]-benzoxazole], the pest or weed control at 500 ppm (in the test with cotton aphids [2]; with tobacco whitefly; in the test with cotton aphids [1]; with rice brown planthopper [3]; in test [4]) was at least 90% in each case.

Regarding `CS(=O)(=O)c1cnccc1-c1nc2cc(C(F)(F)F)ccc2o1` [active compound 135, 2-[3-(methanesulfonyl)pyridin-4-yl]-5-(trifluoromethyl)benzoxazole], the pest or weed control at 500 ppm in the test with cotton aphids [1] is at least 90%.
